Numbered stars: 1 amine (or outer) side, 2 acyl side, 3 side chain; on linkers, the order of the positions; unused ones are H or OH. Square brackets hold non-standard residues; d marks the D form. Side chains are listed from the residue outwards. Peptide text beside a SMILES is read from it. * marks the point of attachment. C20 diacid = O=C(O)CCCCCCCCCCCCCCCCCCC(=O)*; γGlu = O=C(O)[C@H](CCC(=O)[*:2])N[*:1]; AEEA = NCCOCCOCC(=O)O; Aib = CC(C)(N)C(=O)O
Experiments:
[1] = target: T1, human GIP receptor (Homo sapiens, UniProt P48546); assay: [125I]-GIP binding (SPA), human GIP receptor; settings: read-out: hGIPR Ki, nM (SEM, n)
T1 construct: expressed in transfected cells; crude membranes
T1 sequence (P48546 22-466): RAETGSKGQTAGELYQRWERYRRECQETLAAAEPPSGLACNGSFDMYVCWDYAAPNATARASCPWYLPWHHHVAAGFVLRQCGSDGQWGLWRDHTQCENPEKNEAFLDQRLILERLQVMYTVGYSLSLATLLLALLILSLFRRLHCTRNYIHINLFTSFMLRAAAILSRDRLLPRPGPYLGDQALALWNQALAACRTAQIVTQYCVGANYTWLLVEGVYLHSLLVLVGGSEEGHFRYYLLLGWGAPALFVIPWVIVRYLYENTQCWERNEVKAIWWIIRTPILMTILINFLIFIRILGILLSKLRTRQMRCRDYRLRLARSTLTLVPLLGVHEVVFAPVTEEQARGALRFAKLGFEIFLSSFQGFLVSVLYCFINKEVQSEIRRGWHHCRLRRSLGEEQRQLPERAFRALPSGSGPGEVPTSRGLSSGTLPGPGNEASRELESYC

[2] = target: T2, human Gcg receptor (Homo sapiens, UniProt P47871); assay: [125I]-Glucagon binding (SPA), human Gcg receptor; settings: read-out: hGLcgR Ki, nM (SEM, n)
T2 construct: expressed in transfected cells; crude membranes
How it was run: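 Cell pellets were lysed in hypotonic Tris buffer, pH 7.5, homogenized, and spun at low then high speed to give crude membranes. Ki was derived from the fitted IC50.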

[3] = target: human GLP-1 receptor (GLP-1R) (Homo sapiens, UniProt P43220); assay: cAMP pharmacological functional assay in presence of casein, hGLP-1R; assay type: cell-based; settings: HEK293 cells expressing hGLP-1R, 0.1% Casein, geometric mean; read-out: hGLP1R cAMP Rel EC50 nM (SEM, n)
[4] = target: human GLP-1R (Homo sapiens, UniProt P43220); assay: [125I]-GLP-1 binding (SPA), human GLP-1 receptor; parameters: expressed in transfected cells; crude membranes; settings: read-out: hGLP1R Ki, (nM) (SEM, n)
How it was run: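 Membranes: hypotonic lysis (50 mM Tris HCl, pH 7.5, protease inhibitors), Potter-Elvehjem homogenization, high-speed pellet (35000×g 1 h or 25000×g 30 min, 4° C.). Buffer: 25 mM HEPES pH 7.4, 2.5 mM CaCl2, 1 mM MgCl2. Four-parameter IC50 fit; Ki as geometric mean ± SEM.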

[5] = target: T3, gastric inhibitory peptide receptor (GIPR) (Homo sapiens, UniProt P48546); assay: cAMP pharmacological functional assay in presence of casein, hGIPR; assay type: cell-based; settings: HEK293 cells expressing hGIPR, 0.1% Casein, geometric mean; read-out: hGIPR cAMP Rel EC50 nM (SEM, n)
T3 sequence (P48546 22-466): T1 sequence (P48546 22-466)

T2 sequence (P47871 26-477): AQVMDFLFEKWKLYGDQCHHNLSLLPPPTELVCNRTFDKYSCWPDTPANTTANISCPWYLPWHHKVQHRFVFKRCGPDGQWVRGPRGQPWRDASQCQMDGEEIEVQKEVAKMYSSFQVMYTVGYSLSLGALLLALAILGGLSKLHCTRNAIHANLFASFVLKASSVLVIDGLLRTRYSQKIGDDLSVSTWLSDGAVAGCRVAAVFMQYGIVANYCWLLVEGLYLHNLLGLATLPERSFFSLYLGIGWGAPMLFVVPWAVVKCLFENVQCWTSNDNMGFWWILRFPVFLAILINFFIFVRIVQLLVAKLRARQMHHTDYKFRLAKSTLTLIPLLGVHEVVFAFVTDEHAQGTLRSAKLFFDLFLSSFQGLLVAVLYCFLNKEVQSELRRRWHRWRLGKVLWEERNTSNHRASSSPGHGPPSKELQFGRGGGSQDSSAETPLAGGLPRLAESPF
Chain of human GLP-1R (P43220 24-463): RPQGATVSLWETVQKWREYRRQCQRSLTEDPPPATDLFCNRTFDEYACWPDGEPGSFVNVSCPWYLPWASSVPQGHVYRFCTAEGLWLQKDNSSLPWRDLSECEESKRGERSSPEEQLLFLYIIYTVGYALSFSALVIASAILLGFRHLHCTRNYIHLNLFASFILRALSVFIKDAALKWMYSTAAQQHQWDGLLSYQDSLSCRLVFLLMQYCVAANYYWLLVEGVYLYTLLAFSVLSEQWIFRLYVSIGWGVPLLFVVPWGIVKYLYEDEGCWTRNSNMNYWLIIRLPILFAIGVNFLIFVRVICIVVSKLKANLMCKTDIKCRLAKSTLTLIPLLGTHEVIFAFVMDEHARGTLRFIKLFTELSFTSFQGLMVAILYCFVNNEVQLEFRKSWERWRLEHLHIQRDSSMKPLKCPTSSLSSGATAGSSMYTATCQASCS
Chain of human GLP-1 receptor (GLP-1R) (P43220 24-463): as above

| Compound | Ki [1] | Ki [2] | EC50 [3] | Ki [4] | EC50 [5] |
| --- | --- | --- | --- | --- | --- |
| CC[C@H](C)[C@H](NC(=O)[C@H](Cc1ccccc1)NC(=O)[C@H](C)NC(=O)C(C)(C)NC(=O)[C@H](CCC(N)=O)NC(=O)[C@H](C)NC(=O)[C@H](CCCCNC(=O)COCCOCCNC(=O)COCCOCCNC(=O)CC[C@H](NC(=O)CCCCCCCCCCCCCCCCCCC(=O)O)C(=O)O)NC(=O)[C@H](CCCCN)NC(=O)[C@H](CC(=O)O)NC(=O)[C@H](CC(C)C)NC(=O)[C@H](CC(C)C)NC(=O)[C@@H](NC(=O)[C@H](CO)NC(=O)[C@H](Cc1ccc(O)cc1)NC(=O)[C@H](CC(=O)O)NC(=O)[C@H](CO)NC(=O)[C@@H](NC(=O)[C@H](Cc1ccccc1)NC(=O)[C@@H](NC(=O)CNC(=O)[C@H](CCC(=O)O)NC(=O)C(C)(C)NC(=O)[C@@H](N)Cc1ccc(O)cc1)[C@@H](C)O)[C@@H](C)O)[C@@H](C)CC)C(=O)N[C@@H](CCC(=O)O)C(=O)N[C@@H](Cc1ccc(O)cc1)C(=O)N[C@@H](CC(C)C)C(=O)N[C@H](C(=O)N[C@H](CCC(=O)O)C(=O)NCC(=O)NCC(=O)N1CCC[C@H]1C(=O)N[C@@H](CO)C(=O)N[C@@H](CO)C(=O)NCC(=O)N[C@@H](C)C(=O)N1CCC[C@H]1C(=O)N1CCC[C@H]1C(=O)N1CCC[C@H]1C(=O)N[C@@H](CO)C(N)=O)[C@@H](C)CC [Example 83] | 0.142 nM | 320 nM | 0.387 nM | 7.1 nM | 0.182 nM |
| CC[C@H](C)[C@H](NC(=O)[C@H](CC(C)C)NC(=O)[C@H](Cc1ccc(O)cc1)NC(=O)[C@@H](CCC(=O)O)NC(=O)[C@@H](NC(=O)[C@H](Cc1ccccc1)NC(=O)[C@H](C)NC(=O)C(C)(C)NC(=O)[C@H](CCC(N)=O)NC(=O)[C@H](C)NC(=O)[C@H](CCCCNC(=O)COCCOCCNC(=O)COCCOCCNC(=O)CC[C@H](NC(=O)CCCCCCCCCCCCCCCCCCC(=O)O)C(=O)O)NC(=O)[C@H](CCCCN)NC(=O)[C@H](CC(=O)O)NC(=O)[C@H](CC(C)C)NC(=O)[C@H](CC(C)C)NC(=O)[C@@H](NC(=O)[C@H](CO)NC(=O)[C@H](Cc1ccc(O)cc1)NC(=O)[C@H](CC(=O)O)NC(=O)[C@H](CO)NC(=O)[C@@H](NC(=O)[C@H](Cc1ccccc1)NC(=O)[C@@H](NC(=O)CNC(=O)[C@H](CCC(=O)O)NC(=O)C(C)(C)NC(=O)[C@@H](N)Cc1ccc(O)cc1)[C@@H](C)O)[C@@H](C)O)[C@@H](C)CC)[C@@H](C)CC)C(=O)N[C@@H](CCC(=O)O)C(=O)NCC(=O)NCC(=O)N1CCC[C@H]1C(=O)N[C@@H](CO)C(=O)N[C@@H](CO)C(=O)NCC(=O)N[C@@H](C)C(=O)N1CCC[C@H]1C(=O)N1CCC[C@H]1C(=O)N1CCC[C@H]1C(=O)N[C@@H](CO)C(N)=O [Example 84] | 0.143 nM | > 1100 nM | 0.374 nM | 10.2 nM | 0.0915 nM |
| CC[C@H](C)[C@H](NC(=O)[C@H](CC(C)C)NC(=O)[C@H](Cc1ccc(O)cc1)NC(=O)[C@H](CCC(=O)O)NC(=O)[C@@H](NC(=O)[C@H](Cc1ccccc1)NC(=O)[C@H](C)NC(=O)C(C)(C)NC(=O)[C@H](CCC(N)=O)NC(=O)[C@H](C)NC(=O)[C@H](CCCCNC(=O)COCCOCCNC(=O)COCCOCCNC(=O)CC[C@H](NC(=O)CCCCCCCCCCCCCCCCCCC(=O)O)C(=O)O)NC(=O)[C@H](CCCCN)NC(=O)[C@H](CC(=O)O)NC(=O)[C@H](CC(C)C)NC(=O)[C@H](CC(C)C)NC(=O)[C@@H](NC(=O)[C@H](CO)NC(=O)[C@H](C)NC(=O)[C@H](CC(=O)O)NC(=O)[C@H](CO)NC(=O)[C@@H](NC(=O)[C@H](Cc1ccccc1)NC(=O)[C@@H](NC(=O)CNC(=O)[C@H](CCC(=O)O)NC(=O)C(C)(C)NC(=O)[C@@H](N)Cc1ccc(O)cc1)[C@@H](C)O)[C@@H](C)O)[C@@H](C)CC)[C@@H](C)CC)C(=O)N[C@@H](CCC(=O)O)C(=O)NCC(=O)NCC(=O)N1CCC[C@H]1C(=O)N[C@@H](CO)C(=O)N[C@@H](CO)C(=O)NCC(=O)N[C@@H](C)C(=O)N1CCC[C@H]1C(=O)N1CCC[C@H]1C(=O)N1CCC[C@H]1C(=O)N[C@@H](CO)C(N)=O [Example 85] (H-Y[Aib]EGTFTSDASILLDKK([AEEA-AEEA-γGlu-C20 diacid])AQ[Aib]AFIEYLIEGGPSSGAPPPS-NH2) | 0.621 nM | > 894 nM | 0.0518 nM | 1.87 nM | 1.67 nM |
| CC[C@H](C)[C@H](NC(=O)[C@H](CC(C)C)NC(=O)[C@H](Cc1ccc(O)cc1)NC(=O)[C@H](CCC(=O)O)NC(=O)[C@@H](NC(=O)[C@H](Cc1ccccc1)NC(=O)[C@H](C)NC(=O)C(C)(C)NC(=O)[C@H](CCC(N)=O)NC(=O)[C@H](C)NC(=O)[C@H](CCCCNC(=O)COCCOCCNC(=O)COCCOCCNC(=O)CC[C@H](NC(=O)CCCCCCCCCCCCCCCCCCC(=O)O)C(=O)O)NC(=O)[C@H](CCCCN)NC(=O)[C@H](CC(=O)O)NC(=O)[C@H](CC(C)C)NC(=O)[C@H](CC(C)C)NC(=O)[C@@H](NC(=O)[C@H](CO)NC(=O)[C@H](Cc1ccc(O)cc1)NC(=O)[C@H](CC(=O)O)NC(=O)[C@H](CO)NC(=O)[C@@H](NC(=O)[C@H](Cc1ccccc1)NC(=O)[C@@H](NC(=O)CNC(=O)[C@H](CCC(=O)O)NC(=O)C(C)(C)NC(=O)[C@@H](N)Cc1ccc(O)cc1)[C@@H](C)O)[C@@H](C)O)[C@@H](C)CC)[C@@H](C)CC)C(=O)N[C@@H](CCC(=O)O)C(=O)N[C@@H](C)C(=O)NCC(=O)N1CCC[C@H]1C(=O)N[C@@H](CO)C(=O)N[C@@H](CO)C(=O)NCC(=O)N[C@@H](C)C(=O)N1CCC[C@H]1C(=O)N1CCC[C@H]1C(=O)N1CCC[C@H]1C(=O)N[C@@H](CO)C(N)=O [Example 86] (H-Y[Aib]EGTFTSDYSILLDKK([AEEA-AEEA-γGlu-C20 diacid])AQ[Aib]AFIEYLIEAGPSSGAPPPS-NH2) | 0.0401 nM | > 1060 nM | 0.271 nM | 3.74 nM | 0.0452 nM |
| CC[C@H](C)[C@H](NC(=O)[C@H](CC(C)C)NC(=O)[C@H](Cc1ccc(O)cc1)NC(=O)[C@H](CCC(=O)O)NC(=O)[C@@H](NC(=O)[C@H](Cc1ccccc1)NC(=O)[C@H](C)NC(=O)C(C)(C)NC(=O)[C@H](CCC(N)=O)NC(=O)[C@H](C)NC(=O)[C@H](CCCCNC(=O)COCCOCCNC(=O)COCCOCCNC(=O)CC[C@H](NC(=O)CCCCCCCCCCCCCCCCCCC(=O)O)C(=O)O)NC(=O)[C@H](CCCCN)NC(=O)[C@H](CC(=O)O)NC(=O)[C@H](CC(C)C)NC(=O)[C@H](CC(C)C)NC(=O)[C@@H](NC(=O)[C@H](CO)NC(=O)[C@H](Cc1ccc(O)cc1)NC(=O)[C@H](CC(=O)O)NC(=O)[C@H](CO)NC(=O)[C@@H](NC(=O)[C@H](Cc1ccccc1)NC(=O)[C@@H](NC(=O)CNC(=O)[C@H](CCC(=O)O)NC(=O)[C@]1(C)CCCN1C(=O)[C@@H](N)Cc1ccc(O)cc1)[C@@H](C)O)[C@@H](C)O)[C@@H](C)CC)[C@@H](C)CC)C(=O)N[C@@H](CCC(=O)O)C(=O)NCC(=O)NCC(=O)N1CCC[C@H]1C(=O)N[C@@H](CO)C(=O)N[C@@H](CO)C(=O)NCC(=O)N[C@@H](C)C(=O)N1CCC[C@H]1C(=O)N1CCC[C@H]1C(=O)N1CCC[C@H]1C(=O)N[C@@H](CO)C(N)=O [Example 87] | 0.034 nM | 278 nM | 0.0801 nM | 1.79 nM | 0.0945 nM |
| CC[C@H](C)[C@H](NC(=O)[C@H](CC(C)C)NC(=O)[C@H](Cc1ccc(O)cc1)NC(=O)[C@H](CCC(=O)O)NC(=O)[C@@H](NC(=O)[C@H](Cc1ccccc1)NC(=O)[C@H](C)NC(=O)C(C)(C)NC(=O)[C@H](CCC(N)=O)NC(=O)[C@H](C)NC(=O)[C@H](CCCCNC(=O)COCCOCCNC(=O)COCCOCCNC(=O)CC[C@H](NC(=O)CCCCCCCCCCCCCCCCCCC(=O)O)C(=O)O)NC(=O)[C@H](CCCCN)NC(=O)[C@H](CC(=O)O)NC(=O)[C@H](CC(C)C)NC(=O)[C@H](CC(C)C)NC(=O)[C@@H](NC(=O)[C@H](CO)NC(=O)[C@H](Cc1ccc(O)cc1)NC(=O)[C@H](CC(=O)O)NC(=O)[C@H](CO)NC(=O)[C@@H](NC(=O)[C@H](Cc1ccccc1)NC(=O)[C@@H](NC(=O)CNC(=O)[C@H](CCC(=O)O)NC(=O)[C@@H]1CCCN1C(=O)[C@@H](N)Cc1ccc(O)cc1)[C@@H](C)O)[C@@H](C)O)[C@@H](C)CC)[C@@H](C)CC)C(=O)N[C@@H](CCC(=O)O)C(=O)NCC(=O)NCC(=O)N1CCC[C@H]1C(=O)N[C@@H](CO)C(=O)N[C@@H](CO)C(=O)NCC(=O)N[C@@H](C)C(=O)N1CCC[C@H]1C(=O)N1CCC[C@H]1C(=O)N1CCC[C@H]1C(=O)N[C@@H](CO)C(N)=O [Example 88] (H-YPEGTFTSDYSILLDKK([AEEA-AEEA-γGlu-C20 diacid])AQ[Aib]AFIEYLIEGGPSSGAPPPS-NH2) | 0.0717 nM | 545 nM | 0.64 nM | 4.24 nM | 0.475 nM |
